Tests used:
hIL-6 mRNA = assay: Inhibition of hIL-6 mRNA transcription in LPS-stimulated U937 cells; type: cell-based; conditions: Homo sapiens, U-937; PMA-differentiated U937 cells, 1 h pretreatment, 1 ug/mL LPS stimulation, 3 h; read-out: IL-6 activity (Inhibition of hIL-6 mRNA Transcription)
Experimental: In this example, hIL-6 mRNA in tissue culture cells was quantitated to measure the transcriptional inhibition of hIL-6 when treated with a compound of the invention.
Human leukemic monocyte lymphoma U937 cells (CRL-1593.2) were plated at a density of 3.2×10^4 cells per well in a 96-well plate in 100 μL RPMI-1640 containing 10% FBS and penicillin/streptomycin, and differentiated into macrophages for 3 days in 60 ng/mL PMA ([…]) at 37° C. in 5% CO2 prior to the addition of compound. The cells were pretreated for 1 h with increasing concentrations of test compound in 0.1% DMSO prior to stimulation with 1 ug/mL lipopolysaccharide from Escherichia coli. Triplicate wells were used for each concentration. The cells were incubated at 37° C., 5% CO2 for 3 h before the cells were harvested. At time of harvest, media was removed and cells were rinsed in 200 μL PBS. Cells were harvested using the mRNA Catcher PLUS kit according to manufacturer's instructions. The eluted mRNA was then used in a one-step quantitative real-time PCR reaction using components of the RNA UltraSense™ One-Step Kit (Life Technologies) together with Applied Biosystems TaqMan® primer-probes for hIL-6 and Cyclophilin. Real-time PCR plates were run on a VIa™ 7 real time PCR machine (Applied Biosystems), data was analyzed, normalizing the Ct values for hIL-6 to an internal control, prior to determining the fold expression of each sample, relative to the control.

human AML MV-4-11 cells = assay: Inhibition of cell proliferation in MV4-11 cells (CellTiter Aqueous One); type: cell-based; conditions: for IC50: MV4-11, 72 h
Experimental: MV4-11 cells: 96-well plates were seeded with 5×10^4 cells per well of exponentially growing human AML MV-4-11 (CRL-9591) cells and immediately treated with two-fold dilutions of test compounds, ranging from 30 μM to 0.2 μM. Triplicate wells were used for each concentration, as well as a media only and three DMSO control wells. The cells and compounds were incubated at 37° C., 5% CO2 for 72 h before adding 20 μL of the CellTiter Aqueous One Solution (Promega) to each well and incubating at 37° C., 5% CO2 for an additional 3-4 h. The absorbance was taken at 490 nm in a spectrophotometer and the percentage of proliferation relative to DMSO-treated cells was calculated after correction from the blank well. IC50 were calculated using the GraphPad Prism software.

[1] = target: T1, Brd4 bromodomain 1 (BRD4(1)) (Homo sapiens, UniProt O60885); assay: Inhibition of tetra-acetylated histone H4 binding to Brd4 bromodomain 1 (TR-FRET); conditions: tetra-acetylated histone H4 peptide, first bromodomain of Brd4
T1 construct: made in house; host or cells: E. coli BL21(DE3)
Procedure, shortened: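 His-tagged BRD4(1) from E. coli (200 nM) with biotinylated tetra-acetylated H4 peptide (25-50 nM), Eu-cryptate streptavidin and XL665 anti-His, in HEPES pH 7.4/phosphate/KF buffer, 0.2% DMSO. After 2 h at room temperature, TR-FRET 665/620 nm ratio read; IC50 from dose-response curves.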

c-myc = assay: Inhibition of c-myc expression (mRNA, real-time PCR) in MV4-11 cells; type: cell-based; conditions: Human AML MV4-11 cells, 3 h, cMYC mRNA
Experimental: MV4-11 cells (CRL-9591) were plated at a density of 2.5×10^4 cells per well in 96 well U-bottom plates and treated with increasing concentrations of test compound or DMSO (0.1%) in IMDM media containing 10% FBS and penicillin/streptomycin, and incubated for 3 h at 37° C. Triplicate wells were used for each concentration. Cells were pelleted by centrifugation and harvested using the mRNA Catcher PLUS kit according to manufacturer's instructions. The eluted mRNA isolated was then used in a one-step quantitative real-time PCR reaction, using components of the RNA UltraSense™ One-Step Kit (Life Technologies) together with Applied Biosystems TaqMan® primer-probes for cMYC and Cyclophilin. Real-time PCR plates were run on a VIaTM7 real time PCR machine (Applied Biosystems), data was analyzed, normalizing the Ct values for cMYC to an internal control, prior to determining the fold expression of each sample, relative to the control.

Compound	IC50 (hIL-6 mRNA)	IC50 (human AML MV-4-11 cells)	IC50 [1]	Cell Proliferation activity (human AML MV-4-11 cells; 72 h)	IC50 (c-myc)
Cc1noc(C)c1-c1cc([N+](=O)[O-])c2nc(N3CCN(C)CC3)n(Cc3ccccc3)c2c1 [compound 136, 4-(1-benzyl-2-(4-methylpiperazin-1-yl)-4-nitro-1H-benzo[d]imidazol-6-yl)-3,5-dimethylisoxazole]	300 to 3000 nM	300 to 3000 nM	≤ 300 nM	–	–
COCCNc1nc2c([N+](=O)[O-])cc(-c3c(C)noc3C)cc2n1Cc1ccccc1 [compound 137, 1-benzyl-6-(3,5-dimethylisoxazol-4-yl)-N-(2-methoxyethyl)-4-nitro-1H-benzo[d]imidazol-2-amine]	≤ 300 nM	≤ 300 nM	≤ 300 nM	–	–
Cc1noc(C)c1-c1cc2c(cn1)ncn2Cc1ccccc1 [Example Compound 31, 4-(1-benzyl-1H-imidazo[4,5-c]pyridin-6-yl)-3,5-dimethylisoxazole]	300 to 3000 nM	3000 to 30000 nM	300 to 3000 nM	–	–
Cc1noc(C)c1-c1ccc2ncc(=O)n(Cc3ccccc3)c2c1 [Example Compound 11, 1-Benzyl-7-(3,5-dimethylisoxazol-4-yl)quinoxalin-2(1H)-one]	300 to 3000 nM	–	≤ 300 nM	Not active	–
CC(=O)Nc1cc(-c2c(C)noc2C)cc2c1n(C)c(=O)n2Cc1ccccc1 [compound 164, N-(1-benzyl-6-(3,5-dimethylisoxazol-4-yl)-3-methyl-2-oxo-2,3-dihydro-1H-benzo[d]imidazol-4-yl)acetamide]	≤ 300 nM	–	≤ 300 nM	–	–
Cc1noc(C)c1-c1cnc2nc(NC3CCC(O)CC3)n(Cc3ccccc3)c2c1 (stereo not shown) [compound 207, 4-((1-benzyl-6-(3,5-dimethylisoxazol-4-yl)-1H-imidazo[4,5-b]pyridin-2-yl)amino)cyclohexanol]	≤ 300 nM	≤ 300 nM	≤ 300 nM	–	–
Cc1noc(C)c1-c1cc([N+](=O)[O-])c2nc(N3CCCC3)n(Cc3ccccc3)c2c1 [compound 135, 4-(1-benzyl-4-nitro-2-(pyrrolidin-1-yl)-1H-benzo[d]imidazol-6-yl)-3,5-dimethylisoxazole]	≤ 300 nM	300 to 3000 nM	≤ 300 nM	–	–
Cc1noc(C)c1-c1cc(C(N)=O)c2[nH]c(=O)n(Cc3ccccc3)c2c1 [Example Compound 21, 1-benzyl-6-(3,5-dimethylisoxazol-4-yl)-2-oxo-2,3-dihydro-1H-benzo[d]imidazole-4-carboxamide]	≤ 300 nM	300 to 3000 nM	≤ 300 nM	–	–
Cc1noc(C)c1-c1cc2c(ccn2Cc2ccccc2)[nH]c1=O [Example Compound 56, 1-benzyl-6-(3,5-dimethylisoxazol-4-yl)-1H-pyrrolo[3,2-b]pyridin-5(4H)-one]	3000 to 30000 nM	–	300 to 3000 nM	–	–
Cc1noc(C)c1-c1cnc2[nH]c(=O)n(CC3CCCC3)c2c1 [compound 202, 1-(cyclopentylmethyl)-6-(3,5-dimethylisoxazol-4-yl)-1H-imidazo[4,5-b]pyridin-2(3H)-one]	–	300 to 3000 nM	≤ 300 nM	–	300 to 3000 nM
Cc1noc(C)c1Nc1cc(N)c2nc(C)n(Cc3ccccc3)c2c1 [compound 142, 1-benzyl-N6-(3,5-dimethylisoxazol-4-yl)-2-methyl-1H-benzo[d]imidazole-4,6-diamine]	–	3000 to 30000 nM	300 to 3000 nM	–	300 to 3000 nM
Cc1noc(C)c1-c1cnc2nc(NCCO)n(Cc3ccccc3)c2c1 [compound 196, 2-((1-benzyl-6-(3,5-dimethylisoxazol-4-yl)-1H-imidazo[4,5-b]pyridin-2-yl)amino)ethanol]	–	300 to 3000 nM	≤ 300 nM	–	≤ 300 nM
Cc1noc(C)c1-c1cc(N)c2[nH]c(=S)n(Cc3ccccc3)c2c1 [compound 177, 4-amino-1-benzyl-6-(3,5-dimethylisoxazol-4-yl)-1H-benzo[d]imidazole-2(3H)-thione]	–	≤ 300 nM	300 to 3000 nM	–	≤ 300 nM
Cc1noc(C)c1-c1cnc2nc(N3CCN(C)CC3)n(Cc3ccccc3)c2c1 [compound 165, 4-(1-benzyl-2-(4-methylpiperazin-1-yl)-1H-imidazo[4,5-b]pyridin-6-yl)-3,5-dimethylisoxazole]	–	300 to 3000 nM	≤ 300 nM	–	300 to 3000 nM
Cc1noc(C)c1-c1cc([N+](=O)[O-])c2[nH]c(=O)n(CC3CC3)c2c1 [compound 145, 1-(cyclopropylmethyl)-6-(3,5-dimethylisoxazol-4-yl)-4-nitro-1H-benzo[d]imidazol-2(3H)-one]	–	3000 to 30000 nM	≤ 300 nM	–	3000 to 30000 nM
Cc1noc(C)c1-c1cnc2[nH]c(=O)n(Cc3ccccc3)c2c1C [compound 180, 1-benzyl-6-(3,5-dimethylisoxazol-4-yl)-7-methyl-1H-imidazo[4,5-b]pyridin-2(3H)-one]	–	300 to 3000 nM	≤ 300 nM	–	300 to 3000 nM
Cc1noc(C)c1-c1ccc2c(c1)N(Cc1ccccc1)[C@H](C)C(=O)N2 [compound 174, (R)-4-benzyl-6-(3,5-dimethylisoxazol-4-yl)-3-methyl-3,4-dihydroquinoxalin-2(1H)-one]	–	300 to 3000 nM	≤ 300 nM	–	300 to 3000 nM
Cc1noc(C)c1-c1cc(N)c2[nH]c(=O)n(Cc3ccc(Cl)cc3)c2c1 [compound 90, 4-amino-1-(4-chlorobenzyl)-6-(3,5-dimethylisoxazol-4-yl)-1H-benzo[d]imidazol-2(3H)-one]	–	300 to 3000 nM	≤ 300 nM	–	≤ 300 nM
Cc1noc(C)c1-c1cc(N)c2[nH]c(=O)n([C@H](C)c3ccccc3)c2c1 [compound 179, (R)-4-amino-6-(3,5-dimethylisoxazol-4-yl)-1-(1-phenylethyl)-1H-benzo[d]imidazol-2(3H)-one]	–	≤ 300 nM	≤ 300 nM	–	≤ 300 nM
Cc1noc(C)c1-c1cnc2[nH]c(=O)n(CC3CCC3)c2c1 [compound 203, 1-(cyclobutylmethyl)-6-(3,5-dimethylisoxazol-4-yl)-1H-imidazo[4,5-b]pyridin-2(3H)-one]	–	3000 to 30000 nM	≤ 300 nM	–	3000 to 30000 nM
Cc1noc(C)c1-c1cc(N2CCC2=O)c2nc(C)n(Cc3ccccc3)c2c1 [compound 183, 1-(1-benzyl-6-(3,5-dimethylisoxazol-4-yl)-2-methyl-1H-benzo[d]imidazol-4-yl)azetidin-2-one]	–	3000 to 30000 nM	≤ 300 nM	–	300 to 3000 nM
Cc1noc(C)c1-c1cnc2nc(C)n(CC3CCCCC3)c2c1 [compound 191, 4-(1-(cyclohexylmethyl)-2-methyl-1H-imidazo[4,5-b]pyridin-6-yl)-3,5-dimethylisoxazole]	–	300 to 3000 nM	≤ 300 nM	–	≤ 300 nM
Cn1nccc1-c1cc(N)c2c(c1)n(Cc1ccccc1)c(=O)n2C [compound 199, 4-amino-1-benzyl-3-methyl-6-(1-methyl-1H-pyrazol-5-yl)-1H-benzo[d]imidazol-2(3H)-one]	–	300 to 3000 nM	≤ 300 nM	–	300 to 3000 nM
COCCNc1nc2ncc(-c3c(C)noc3C)cc2n1Cc1ccccc1 [compound 167, 1-benzyl-6-(3,5-dimethylisoxazol-4-yl)-N-(2-methoxyethyl)-1H-imidazo[4,5-b]pyridin-2-amine]	–	≤ 300 nM	≤ 300 nM	–	≤ 300 nM
